{"source": "patent US10966962B2", "about": "“Method for treating neurodegenerative diseases” (THE BOARD OF TRUSTEES OF THE LELAND STANFORD JUNIOR …, priority 2014, dated 2021)", "system": "brain perivascular macrophages", "assay": "Brain perivascular macrophage iNOS, IL6, TNFα in ALS transgenic animals", "format": "in vivo, mice", "conditions": "25 mg/kg orally 3 times a week for 8 weeks, 13 weeks of age", "experimental": "ALS transgenic animals were purchased from Jackson Laboratories. These animals express the G93A mutation in the gene SOD1 which has been implicated as the cause of the disease in a subset of human subjects with familial ALS. […] These animals represent a gold standard model for therapeutic discovery in the field of ALS research. ALS transgenic animals were orally treated 3 times a week for 8 weeks with 0.5% methylcellulose or ZLN005 (Sigma) at 25 mg/kg in 0.5% methylcellulose, starting at 5 weeks of age. For study of brain perivascular macrophages, ALS-Ctrl (n=8), ALS-ZLN (n=12), and WT animals (n=12) were sacrificed at 13 weeks of age. PBS-perfused brain tissues of sacrificed animals were digested with Collagenase IV and processed for flow cytometry. Brain perivascular macrophages were phenotyped with antibodies directed against mouse iNOS, IL6, and TNFα (Biolegend) for flow cytometric acquisition (LSRII, BD) and analysis (FlowJo). The results are summarized in FIG. 16; Y-axis represents % of brain perivascular macrophages that express iNOS (A), IL6 (B) and TNFα (C). […] ANOVA was used for statistical analyses."}
{"smiles": "CC(C)(C)c1ccc(-c2nc3ccccc3[nH]2)cc1", "note": "[ZLN005, 2-(4-tert-butylphenyl)-1H-benzimidazole]", "values": [{"measurement": "IL6 production in brain perivascular macrophages", "result": "suppressed, although these differences did not reach statistical significance"}, {"measurement": "TNFα production in brain perivascular macrophages", "result": "suppressed, although these differences did not reach statistical significance"}, {"measurement": "iNOS production in brain perivascular macrophages", "result": "decreased"}]}
